Drawing on ChEMBL document CHEMBL5230096, “A comprehensive insight on the recent development of Cyclic Dependent Kinase inhibitors as anticancer agents” (Eur J Med Chem, 2020), this text covers DC50 and IC50 for three compounds.

The structures appear in SMILES notation. pIC50: −log10 of the molar value. Where only a bound is given, the exact number is not on record here.

The target in data set [1] is Protein cereblon/Cyclin-dependent kinase 6 (Homo sapiens, UniProt Q00534+Q96SW2). As to the kind of experiment: Protac activity at CRBN/CDK6 in human MDA-MB-231 cells assessed as CDK6 degradation incubated for 18 hrs by Western blot analysis. The class given is cell-based.
Sequence of Protein cereblon/Cyclin-dependent kinase 6 (Q00534 whole entry): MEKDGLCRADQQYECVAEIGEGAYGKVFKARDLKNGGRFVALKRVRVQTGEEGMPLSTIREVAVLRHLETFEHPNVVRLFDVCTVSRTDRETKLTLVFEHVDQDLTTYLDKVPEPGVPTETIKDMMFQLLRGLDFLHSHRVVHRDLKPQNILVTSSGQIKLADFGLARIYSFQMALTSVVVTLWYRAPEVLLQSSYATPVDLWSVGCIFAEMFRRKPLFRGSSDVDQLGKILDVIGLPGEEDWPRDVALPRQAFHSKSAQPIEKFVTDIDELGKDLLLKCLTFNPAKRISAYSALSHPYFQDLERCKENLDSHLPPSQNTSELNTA
Sequence of Protein cereblon/Cyclin-dependent kinase 6 (Q96SW2 whole entry): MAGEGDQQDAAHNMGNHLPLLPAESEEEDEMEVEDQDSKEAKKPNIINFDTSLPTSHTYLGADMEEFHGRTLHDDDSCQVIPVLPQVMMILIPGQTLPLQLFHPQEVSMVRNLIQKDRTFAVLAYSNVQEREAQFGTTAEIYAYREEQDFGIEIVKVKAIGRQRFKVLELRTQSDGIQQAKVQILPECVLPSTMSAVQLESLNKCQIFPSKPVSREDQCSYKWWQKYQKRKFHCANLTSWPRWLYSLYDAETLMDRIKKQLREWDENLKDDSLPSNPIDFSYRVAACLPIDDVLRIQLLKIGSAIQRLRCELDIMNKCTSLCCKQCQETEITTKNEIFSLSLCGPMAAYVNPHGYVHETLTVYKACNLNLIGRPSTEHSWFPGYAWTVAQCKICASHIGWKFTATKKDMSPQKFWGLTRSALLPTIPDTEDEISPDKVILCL
For data set [2], the target named is Protein cereblon/Cyclin-dependent kinase 4 (Homo sapiens, UniProt P11802+Q96SW2). Nature of the data set: Protac activity at CRBN/CDK4 in human MDA-MB-231 cells assessed as CDK4 degradation incubated for 18 hrs by Western blot analysis. The class given is cell-based.
Sequence of Protein cereblon/Cyclin-dependent kinase 4 (P11802 whole entry): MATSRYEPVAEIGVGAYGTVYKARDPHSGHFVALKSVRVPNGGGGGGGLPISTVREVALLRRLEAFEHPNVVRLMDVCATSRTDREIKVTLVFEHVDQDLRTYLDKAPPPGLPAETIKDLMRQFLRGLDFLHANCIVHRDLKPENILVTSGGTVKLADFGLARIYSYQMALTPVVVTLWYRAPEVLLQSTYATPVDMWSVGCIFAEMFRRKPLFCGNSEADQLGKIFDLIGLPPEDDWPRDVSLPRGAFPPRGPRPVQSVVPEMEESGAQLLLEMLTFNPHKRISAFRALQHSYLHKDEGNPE
Sequence of Protein cereblon/Cyclin-dependent kinase 4 (Q96SW2 whole entry): as the sequence (Q96SW2 whole entry) above
Data set [3] can be described thus: Cytotoxicity against human L02 cells assessed as inhibition of cell viability incubated for 72 hrs by MTT assay. In kind it is toxicity, cell-based.
The test system of the next data set is G-361. Nature of the data set: Cytotoxicity against human G-361 cells assessed as reduction in cell growth incubated for 72 hrs by Calcein AM assay. In kind it is functional, cell-based. To be noted: G-361, 72 h.
A further data set concerns HeLa. Nature of the data set: Cytotoxicity against human HeLa cells assessed as reduction in cell growth incubated for 72 hrs by Calcein AM assay. The class given is functional, cell-based.
A further data set concerns U-266. As to the kind of experiment: Cytotoxicity against human U-266 cells assessed as reduction in cell growth incubated for 72 hrs by Calcein AM assay. The class given is functional, cell-based. To be noted: U-266, 72 h.
The test system of a further data set is HOS. As to the kind of experiment: Cytotoxicity against human HOS cells assessed as reduction in cell growth incubated for 72 hrs by Calcein AM assay. In kind it is functional, cell-based.
In another data set the test system is HCT-116. As to the kind of experiment: Cytotoxicity against human HCT-116 cells assessed as reduction in cell growth incubated for 72 hrs by Calcein AM assay. In kind it is functional, cell-based. The settings on record: HCT-116, 72 h.
In another data set the test system is CCRF-CEM. Nature of the data set: Cytotoxicity against human CEM cells assessed as reduction in cell growth incubated for 72 hrs by Calcein AM assay. The class given is functional, cell-based.
Another data set concerns MCF7. As to the kind of experiment: Cytotoxicity against human MCF7 cells assessed as reduction in cell growth incubated for 72 hrs by Calcein AM assay. In kind it is functional, cell-based. To be noted: MCF7, 72 h.
Another data set deals with RPMI-8226. As to the kind of experiment: Cytotoxicity against human RPMI-8226 cells assessed as reduction in cell growth incubated for 72 hrs by Calcein AM assay. In kind it is functional, cell-based. The settings on record: RPMI-8226, 72 h.
For a further data set, the system named is K562. Nature of the data set: Cytotoxicity against human K562 cells assessed as reduction in cell growth incubated for 72 hrs by Calcein AM assay. In kind it is functional, cell-based. The settings on record: K562, 72 h.
Another data set relates to HT-29. Nature of the data set: Cytotoxicity against human HT-29 cells assessed as reduction in cell growth incubated for 72 hrs by Calcein AM assay. To be noted: HT-29, 72 h. The class given is functional, cell-based.
The test system of a further data set is MDA-MB-468. Nature of the data set: Cytotoxicity against human MDA-MB-468 cells assessed as reduction in cell growth incubated for 72 hrs by Calcein AM assay. To be noted: MDA-MB-468, 72 h. In kind it is functional, cell-based.

For `CC(=O)c1c(C)c2cnc(Nc3ccc(N4CCN(Cc5cn(CCCCCC(=O)Nc6cccc7c6C(=O)N(C6CCC(=O)NC6=O)C7=O)nn5)CC4)cn3)nc2n(C2CCCC2)c1=O` (centres undefined), the DC50 in data set [1] and in data set [2] was 0.02 µM each time.
Consider `O=C1CCC(N2C(=O)c3cccc(NC(=O)CCCCCCCn4cc(COc5c(O)cc(O)c6c(=O)cc(-c7ccccc7)oc56)nn4)c3C2=O)C(=O)N1` (centres undefined), for which the IC50 at 72 hrs in [3] is more than 100 µM.
Regarding `CC[C@H](CO)Nc1nc(NCc2ccccc2N)c2[nH]nc(C(C)C)c2n1`, the pIC50 in the data set on G-361, with HeLa, with U-266, with HOS, with HCT-116 and in the data set with CCRF-CEM was 5.30 in each case. In addition, the pIC50 in the data set on MCF7, in the data set with RPMI-8226, in the data set with K562, in the data set on HT-29 and in the data set with MDA-MB-468 was 5.30 throughout.
